The values that follow come from PMC7563019 (Acta Pharmaceutica Sinica. B, 2020).

The IC50 is the concentration needed to halve the response being measured. Lower therefore signals inhibition by little substance.

This assay deals with LSD1 (Homo sapiens, UniProt O60341). Briefly: LSD1 enzymatic assay. It is filed as biochemical. As to conditions: for inhibition at 1 µM: read-out: Inhibition rate (%) at 1 μmol/L against LSD1.

As for `C#CCSc1nc(Nc2ccc(C)cc2)c(C#N)c(-c2ccccc2)n1` [Compound 7f], the IC50 was over 64000 nM. On the same count and under the same terms, for `N#Cc1c(Nc2ccc(Cl)cc2)nc(SCc2cn(Cc3ccccc3Cl)nn2)nc1-c1ccccc1` [Compound 10b] the value was 628 ± 27 nM. On the same count and under the same terms, for `N#Cc1c(Nc2cccc(Cl)c2)nc(SCc2cn(Cc3ccccc3Cl)nn2)nc1-c1ccccc1` [Compound 10c] the value was 6310 ± 719 nM.

Take `Cc1ccc(Nc2nc(SCc3cn(CC(=O)NC(=O)Nc4ccccn4)nn3)nc(-c3ccc(Cl)cc3)c2C#N)cc1` [Compound 14c]: the IC50 was 531 ± 2 nM, the “fold stronger LSD1 inhibitory activity than compound 14a” value is “about 3.5 fold” and the inhibition at 1 µM worked out at 91.4%.

Regarding `Cc1ccc(Nc2nc(SCc3cn(CC(=O)NC(=O)Nc4ccccn4)nn3)nc(-c3ccc(Br)cc3)c2C#N)cc1` [Compound 14d], the half-maximal inhibitory concentration (IC50) came out at 3820 ± 582 nM and the inhibition at 1 µM is 46.3%.

Regarding `Cc1ccc(-c2nc(SCc3cn(CC(=O)NC(=O)Nc4ccccn4)nn3)nc(Nc3cccc(Cl)c3)c2C#N)cc1` [Compound 14p], the IC50 came to 232 ± 2 nM. Consider `Cc1ccc(Nc2nc(SCC(=O)NC(=O)Nc3ccccn3)nc(-c3ccc(C(C)C)cc3)c2C#N)cc1` [Compound 16b], for which the IC50 was over 125000 nM.
